According to US20130065818A1, “Arylamide Compounds And Compositions And Uses Thereof” (POLYMEDIX, priority 2006, published 2013):
In brackets after ≈: the same amount, converted by molar mass. Read-outs that look alike come from different tables or passages of the source.

Experiments:
[1] = test system: Moraxella species (including Moraxella catarrhalis); assay: MIC, 25 ocular isolates, broth microdilution (Example 8); assay type: cell-based
Experimental: (§1) Mueller-Hinton Broth supplemented with 2% lysed horse blood in tubes was inoculated with 25 ocular isolates of Streptococcus pneumoniae, Streptococcus viridans group, and Moraxella species (including Moraxella catarrhalis) plus two controls (Staphylococcus aureus and E. coli) and incubated at 37° C. overnight. Additionally, Mueller-Hinton Broth in tubes was inoculated with two controls (Staphylococcus aureus and E. coli) and incubated at 37° C. overnight on a shaker set at 250 rpm.
(§2) On the day of testing, a 640 μg/ml (1280 μg/ml for Serratia marcescens and Pseudomonas aeruginosa) concentration was prepared from a 1% stock solution in 0.01% acetic acid, 0.2% BSA in polypropylene tubes.
(§3) Serial doubling dilutions in 0.01% acetic acid, 0.2% BSA in 96 well polypropylene plates, which are used as reservoirs for the inoculation of the test plates, were carried out to obtain serial dilutions of test agents at 10 times the required test concentrations: 640, 320, 160, 80, 40, 20, 10, 5, 2.5, 1.25, and 0.625 μg/ml (1280, 640, 320, 160, 80, 40, 20, 10, 5, 2.5, and 1.25 μg/ml for Serratia marcescens and Pseudomonas aeruginosa).
(§4) Ten μl of diluted 10×test agents was added to each well of one row of the 96 well polypropylene plates from column 2 to column 12 (column 1 is a control for bacteria alone, with no peptide). Test agent concentrations in columns 2-12 were as follows: 64, 32, 16, 8, 4, 2, 1, 0.5, 0.25, 0.125, and 0.0625 μg/ml (128, 64, 32, 16, 8, 4, 2, 1, 0.5, 0.25, and 0.125 μg/ml for Serratia marcescens and Pseudomonas aeruginosa). The same peptide was in each of the 8 rows. One plate contained dilutions of one test agent and 8 bacterial isolates.
(§5) On the day of testing, the overnight bacterial broth cultures of Streptococcus pneumoniae, Streptococcus viridans and Moraxella species (including Moraxella catarrhalis) plus two controls (Staphylococcus aureus and E. coli) were diluted in 5 ml of trypticase soy broth to yield turbidity equal to a 0.5 McFarland standard. The final inoculum for MIC testing for Streptococcus pneumoniae, Streptococcus viridans and Moraxella species (including Moraxella catarrhalis) was achieved by placing 0.1 ml of the turbidity adjusted sample to 5 ml of Mueller-Hinton broth containing 2% lysed horse red blood cells.
(§6) Ninety μl of the bacterial suspensions was dispensed in each well from column 1 to column 12. Each bacterial isolate was placed in one row of a 96 well polypropylene plate containing the test agents. The plates were placed on shaker at 15 minutes at room temperature, and then incubated at 37° C. overnight. MICs were determined visually as the lowest concentration of drug that inhibits visible bacterial growth.

Streptococcus pneumoniae = assay: as above; assay type: cell-based
Experimental: as §1, §2, §3, §4, §5, §6

[2] = n=25 isolates, >64 replaced with 128

N=C(N)NCCCCC(=O)Nc1cc(C(F)(F)F)cc(NC(=O)c2cnc(C(=O)Nc3cc(C(F)(F)F)cc(NC(=O)CCCCNC(=N)N)c3SCCN)cn2)c1SCCN [Oligomer 5]
MIC ([1]; Moraxella, 25 ocular isolates, Mueller-Hinton broth with 2% lysed horse red blood cells, read-out: Median MIC): ≤ 4 µg/mL
MIC ([1]; Moraxella, isolate 1 K1614 - MS, read-out: MIC): 64 µg/mL (≈ 69.8 µM)
MIC ([1]; Moraxella, isolate 2 K1661 - MS, read-out: MIC): 16 µg/mL (≈ 17.4 µM)
MIC ([1]; Moraxella, isolate 3 K1643 - MS, read-out: MIC): 0.125 µg/mL (≈ 0.136 µM)
MIC ([1]; Moraxella, isolate 4 K1640 - MS, read-out: MIC): 8 µg/mL (≈ 8.72 µM)
MIC ([1]; Moraxella, isolate 5 B1431 - MS, read-out: MIC): 0.5 µg/mL (≈ 0.545 µM)
MIC ([1]; Moraxella, isolate 6 B1429 - MS, read-out: MIC): 1 µg/mL (≈ 1.09 µM)
MIC ([1]; Moraxella, isolate 7 B1418 - MS, read-out: MIC): 0.25 µg/mL (≈ 0.273 µM)
MIC ([1]; Moraxella, isolate 8 K1784 - MS, read-out: MIC): 0.25 µg/mL (≈ 0.273 µM)
MIC ([1]; Moraxella, isolate 9 K1773 - MS, read-out: MIC): 0.25 µg/mL (≈ 0.273 µM)
MIC ([1]; Moraxella, isolate 10 K1369 - MS, read-out: MIC): 2 µg/mL (≈ 2.18 µM)
MIC ([1]; Moraxella, isolate 11 B1275 - MS, read-out: MIC): 0.125 µg/mL (≈ 0.136 µM)
MIC ([1]; Moraxella, isolate 12 B1221 - MS, read-out: MIC): 0.125 µg/mL (≈ 0.136 µM)
MIC ([1]; Moraxella, isolate 13 B1172 - MS, read-out: MIC): > 64 µg/mL
MIC ([1]; Moraxella, isolate 14 E542 - MS, read-out: MIC): 2 µg/mL (≈ 2.18 µM)
MIC ([1]; Moraxella, isolate 15 K678 - MS, read-out: MIC): 0.5 µg/mL (≈ 0.545 µM)
MIC ([1]; Moraxella, isolate 16 K660 - MS, read-out: MIC): 0.25 µg/mL (≈ 0.273 µM)
MIC ([1]; Moraxella, isolate 17 K599 - MC, read-out: MIC): 0.25 µg/mL (≈ 0.273 µM)
MIC ([1]; Moraxella, isolate 18 K1650 - MC, read-out: MIC): 0.25 µg/mL (≈ 0.273 µM)
MIC ([1]; Moraxella, isolate 19 K1373 - MC, read-out: MIC): 0.125 µg/mL (≈ 0.136 µM)
MIC ([1]; Moraxella, isolate 20 K1553 - MC, read-out: MIC): 2 µg/mL (≈ 2.18 µM)
MIC ([1]; Moraxella, isolate 21 K1453 - MC, read-out: MIC): 64 µg/mL (≈ 69.8 µM)
MIC ([1]; Moraxella, isolate 22 K1227 - MC, read-out: MIC): 1 µg/mL (≈ 1.09 µM)
MIC ([1]; Moraxella, isolate 23 B1102 - MC, read-out: MIC): 0.5 µg/mL (≈ 0.545 µM)
MIC ([1]; Moraxella, isolate 24 K1819 - MC, read-out: MIC): 32 µg/mL (≈ 34.9 µM)
MIC ([1]; Moraxella, isolate 25 K1855 - MC, read-out: MIC): 8 µg/mL (≈ 8.72 µM)
MIC50 ([1]; Moraxella, n=25 isolates, >64 replaced with 128, read-out: MIC50): 0.5 µg/mL (≈ 0.545 µM)
MIC90 ([1]; Moraxella, n=25 isolates, >64 replaced with 128, read-out: MIC90): 32 µg/mL (≈ 34.9 µM)
MIC ([1]; Moraxella, n=25 isolates, >64 replaced with 128, read-out: Median MIC): 0.5 µg/mL (≈ 0.545 µM)
MIC50 [1, 2]: 0.5 µg/mL (≈ 0.545 µM)
MIC90 [1, 2]: 32 µg/mL (≈ 34.9 µM)
Range of MICs [1, 2]: 0.125 to 128 µg/mL
MIC50 (Streptococcus pneumoniae; 25 isolates, Row 13): 4 µg/mL (≈ 4.36 µM)
MIC90 (Streptococcus pneumoniae; 25 isolates, Row 22): 16 µg/mL (≈ 17.4 µM)
Range of MICs (Streptococcus pneumoniae; 25 isolates, Summary of Results, >64 was Replaced with 128): 4 to 128 µg/mL
MIC (Streptococcus pneumoniae; Streptococcus pneumoniae, 25 ocular isolates, Mueller-Hinton broth with 2% lysed horse red blood cells, read-out: Median MIC): ≤ 4 µg/mL
MIC (Streptococcus pneumoniae; Streptococcus pneumoniae, isolate 1—B1386, read-out: MIC): > 64 µg/mL
MIC (Streptococcus pneumoniae; Streptococcus pneumoniae, isolate 2—B1380, read-out: MIC): 4 µg/mL (≈ 4.36 µM)
MIC (Streptococcus pneumoniae; Streptococcus pneumoniae, isolate 3—B1378, read-out: MIC): 0.5 µg/mL (≈ 0.545 µM)
MIC (Streptococcus pneumoniae; Streptococcus pneumoniae, isolate 4—B1377, read-out: MIC): 8 µg/mL (≈ 8.72 µM)
MIC (Streptococcus pneumoniae; Streptococcus pneumoniae, isolate 5—B1373, read-out: MIC): 8 µg/mL (≈ 8.72 µM)
MIC (Streptococcus pneumoniae; Streptococcus pneumoniae, isolate 6—B1367, read-out: MIC): 16 µg/mL (≈ 17.4 µM)
MIC (Streptococcus pneumoniae; Streptococcus pneumoniae, isolate 7—B1355, read-out: MIC): 8 µg/mL (≈ 8.72 µM)
MIC (Streptococcus pneumoniae; Streptococcus pneumoniae, isolate 8—B1353, read-out: MIC): 4 µg/mL (≈ 4.36 µM)
MIC (Streptococcus pneumoniae; Streptococcus pneumoniae, isolate 9—B1351, read-out: MIC): 1 µg/mL (≈ 1.09 µM)
MIC (Streptococcus pneumoniae; Streptococcus pneumoniae, isolate 10—B1339, read-out: MIC): 2 µg/mL (≈ 2.18 µM)
MIC (Streptococcus pneumoniae; Streptococcus pneumoniae, isolate 11—B1337, read-out: MIC): 1 µg/mL (≈ 1.09 µM)
MIC (Streptococcus pneumoniae; Streptococcus pneumoniae, isolate 12—B1335, read-out: MIC): 1 µg/mL (≈ 1.09 µM)
MIC (Streptococcus pneumoniae; Streptococcus pneumoniae, isolate 13—B1334, read-out: MIC): 1 µg/mL (≈ 1.09 µM)
MIC (Streptococcus pneumoniae; Streptococcus pneumoniae, isolate 14—B1333, read-out: MIC): 1 µg/mL (≈ 1.09 µM)
MIC (Streptococcus pneumoniae; Streptococcus pneumoniae, isolate 15—B1255, read-out: MIC): 1 µg/mL (≈ 1.09 µM)
MIC (Streptococcus pneumoniae; Streptococcus pneumoniae, isolate 16—B1288, read-out: MIC): 8 µg/mL (≈ 8.72 µM)
MIC (Streptococcus pneumoniae; Streptococcus pneumoniae, isolate 17—B1287, read-out: MIC): 16 µg/mL (≈ 17.4 µM)
MIC (Streptococcus pneumoniae; Streptococcus pneumoniae, isolate 18—B1272, read-out: MIC): 1 µg/mL (≈ 1.09 µM)
MIC (Streptococcus pneumoniae; Streptococcus pneumoniae, isolate 19—B1264, read-out: MIC): 1 µg/mL (≈ 1.09 µM)
MIC (Streptococcus pneumoniae; Streptococcus pneumoniae, isolate 20—B1252, read-out: MIC): 16 µg/mL (≈ 17.4 µM)
MIC (Streptococcus pneumoniae; Streptococcus pneumoniae, isolate 21—B1245, read-out: MIC): 2 µg/mL (≈ 2.18 µM)
MIC (Streptococcus pneumoniae; Streptococcus pneumoniae, isolate 22—B1211, read-out: MIC): 8 µg/mL (≈ 8.72 µM)
MIC (Streptococcus pneumoniae; Streptococcus pneumoniae, isolate 23—B1213, read-out: MIC): 16 µg/mL (≈ 17.4 µM)
MIC (Streptococcus pneumoniae; Streptococcus pneumoniae, isolate 24—B1208, read-out: MIC): 8 µg/mL (≈ 8.72 µM)
MIC (Streptococcus pneumoniae; Streptococcus pneumoniae, isolate 25—B1214, read-out: MIC): 4 µg/mL (≈ 4.36 µM)
MIC (Streptococcus pneumoniae; Streptococcus pneumoniae, n=25 per group, read-out: Median MIC): 4 µg/mL (≈ 4.36 µM)
MIC50 (Streptococcus pneumoniae; Streptococcus pneumoniae, 25 isolates, Summary of Results, read-out: MIC50): 4 µg/mL (≈ 4.36 µM)
MIC90 (Streptococcus pneumoniae; Streptococcus pneumoniae, 25 isolates, Summary of Results, read-out: MIC90): 16 µg/mL (≈ 17.4 µM)
MIC (Streptococcus pneumoniae; Streptococcus pneumoniae, 25 isolates, Summary of Results, read-out: Median MIC): 4 µg/mL (≈ 4.36 µM)
MIC50 (Streptococcus pneumoniae; n=25 per group): 4 µg/mL (≈ 4.36 µM)
MIC90 (Streptococcus pneumoniae; n=25 per group): 16 µg/mL (≈ 17.4 µM)
Range of MICs (Streptococcus pneumoniae; n=25 per group): 4 to 128 µg/mL
